From patent US9999619B2, “Piperidin-4-yl azetidine derivatives as JAK1 inhibitors” (Incyte Corporation, priority 2010, dated 2018)

Legend:
Type in all cases: biochemical
Jak2 (a.a. 828-1132) = Jak2 (a.a. 828-1132) (Homo sapiens (Human), UniProt O60674); experiment: In vitro JAK kinase assay (HTRF, phosphorylation of a biotinylated peptide), JAK2; settings: measured at 1 mM ATP
Procedure, shortened: (§1)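 Phosphorylation of a biotinylated peptide by purified His-tagged JAK catalytic domains (insect-cell baculovirus expression) ran 1 hr at room temperature. After stopping with EDTA, Eu-Py20 and SA-APC were bound for 40 minutes and HTRF measured.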

[1] = target: human JAK1 (a.a. 837-1142); experiment: In vitro JAK kinase assay (HTRF, phosphorylation of a biotinylated peptide), JAK1; settings: ratio of JAK2 IC50 to JAK1 IC50, measured at 1 mM ATP
Procedure, shortened: as §1

[2] = target: human JAK1 (a.a. 837-1142) (Homo sapiens, UniProt P23458); experiment: as above; settings: measured at 1 mM ATP
Procedure, shortened: as §1

Chain of Jak2 (a.a. 828-1132) (O60674 828-1132): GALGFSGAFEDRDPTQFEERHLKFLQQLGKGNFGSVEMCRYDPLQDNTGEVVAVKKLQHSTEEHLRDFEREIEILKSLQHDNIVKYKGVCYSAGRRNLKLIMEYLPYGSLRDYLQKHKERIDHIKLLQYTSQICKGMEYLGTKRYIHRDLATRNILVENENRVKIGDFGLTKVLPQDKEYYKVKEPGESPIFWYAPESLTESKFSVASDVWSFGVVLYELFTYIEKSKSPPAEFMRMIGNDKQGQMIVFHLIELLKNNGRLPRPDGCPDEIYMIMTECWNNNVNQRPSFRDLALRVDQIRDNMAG

Structure (SMILES) | IC50 (Jak2 (a.a. 828-1132)) [nM] | IC50 Ratio JAK2/JAK1 [1] | IC50 [2] [nM]
N#CCC1(n2cc(-c3ncnc4[nH]ccc34)cn2)CN(C2CCN(Cc3cc(C(F)(F)F)ccc3Cl)CC2)C1 [Example 211, {1-{1-[2-chloro-5-(trifluoromethyl)benzyl]piperidin-4-yl}-3-[4-(7H-pyrrolo[2,3-d]pyrimidin-4-yl)-1H-pyrazol-1-yl]azetidin-3-yl}acetonitrile] | 10 to 50 | 5.0 | 5 to 20
N#CCC1(n2cc(-c3ncnc4[nH]ccc34)cn2)CN(C2CCN(C(=O)Nc3ccccc3OC(F)F)CC2)C1 [Example 164, 4-{3-(cyanomethyl)-3-[4-(7H-pyrrolo[2,3-d]pyrimidin-4-yl)-1H-pyrazol-1-yl]azetidin-1-yl}-N-[2-(difluoromethoxy)phenyl]piperidine-1-carboxamide] | 10 to 50 | 13.3 | ≤ 5
N#CCC1(n2cc(-c3ncnc4[nH]ccc34)cn2)CN(C2CCN(C(=O)c3ccccc3F)CC2)C1 [Example 67, {1-[1-(2-fluorobenzoyl)piperidin-4-yl]-3-[4-(7H-pyrrolo[2,3-d]pyrimidin-4-yl)-1H-pyrazol-1-yl]azetidin-3-yl}acetonitrile] | ≤ 10 | 4.7 | ≤ 5
N#CCC1(n2cc(-c3ncnc4[nH]ccc34)cn2)CN(C2CCN(C(=O)c3ccc(F)c(Cl)c3)CC2)C1 [Example 34, {1-[1-(3-chloro-4-fluorobenzoyl)piperidin-4-yl]-3-[4-(7H-pyrrolo[2,3-d]pyrimidin-4-yl)-1H-pyrazol-1-yl]azetidin-3-yl}acetonitrile] | 10 to 50 | 6.0 | 5 to 20
N#CCC1(n2cc(-c3c(F)cnc4[nH]ccc34)cn2)CN(C2CCN(C(=O)c3ccc(F)c(C#N)c3)CC2)C1 [Example 318, 5-[(4-{3-(cyanomethyl)-3-[4-(5-fluoro-1H-pyrrolo[2,3-b]pyridin-4-yl)-1H-pyrazol-1-yl]azetidin-1-yl}piperidin-1-yl)carbonyl]-2-fluorobenzonitrile] | 10 to 50 | 4.7 | 5 to 20
Cc1cccc(Cl)c1NC(=O)N1CCC(N2CC(CC#N)(n3cc(-c4ncnc5[nH]ccc45)cn3)C2)CC1 [Example 161, N-(2-chloro-6-methylphenyl)-4-{3-(cyanomethyl)-3-[4-(7H-pyrrolo[2,3-d]pyrimidin-4-yl)-1H-pyrazol-1-yl]azetidin-1-yl}piperidine-1-carboxamide] | 10 to 50 | 12.1 | ≤ 5
CCn1nccc1NC(=O)N1CCC(N2CC(CC#N)(n3cc(-c4ncnc5[nH]ccc45)cn3)C2)CC1 [Example 196, 4-{3-(cyanomethyl)-3-[4-(7H-pyrrolo[2,3-d]pyrimidin-4-yl)-1H-pyrazol-1-yl]azetidin-1-yl}-N-(1-ethyl-1H-pyrazol-5-yl)piperidine-1-carboxamide] | 50 to 100 | 9.9 | 5 to 20
COc1cccc(C(=O)N2CCC(N3CC(CC#N)(n4cc(-c5ncnc6[nH]ccc56)cn4)C3)CC2)c1 [Example 31, {1-[1-(3-methoxybenzoyl)piperidin-4-yl]-3-[4-(7H-pyrrolo[2,3-d]pyrimidin-4-yl)-1H-pyrazol-1-yl]azetidin-3-yl}acetonitrile] | ≤ 10 | 1.9 | ≤ 5
COc1cc(C(=O)N2CCC(N3CC(CC#N)(n4cc(-c5ncnc6[nH]ccc56)cn4)C3)CC2)cc(Cl)n1 [Example 37, {1-[1-(2-chloro-6-methoxyisonicotinoyl)piperidin-4-yl]-3-[4-(7H-pyrrolo[2,3-d]pyrimidin-4-yl)-1H-pyrazol-1-yl]azetidin-3-yl}acetonitrile] | ≤ 10 | 2.1 | ≤ 5
Cc1nc(F)ccc1NC(=O)N1CCC(N2CC(CC#N)(n3cc(-c4ncnc5[nH]ccc45)cn3)C2)CC1 [Example 199, 4-{3-(cyanomethyl)-3-[4-(7H-pyrrolo[2,3-d]pyrimidin-4-yl)-1H-pyrazol-1-yl]azetidin-1-yl}-N-(6-fluoro-2-methylpyridin-3-yl)piperidine-1-carboxamide] | 10 to 50 | 10.0 | ≤ 5
N#CCC1(n2cc(-c3ncnc4[nH]ccc34)cn2)CN(C2CCN(Cc3cccc(C#N)c3)CC2)C1 [Example 223, 3-[(4-{3-(cyanomethyl)-3-[4-(7H-pyrrolo[2,3-d]pyrimidin-4-yl)-1H-pyrazol-1-yl]azetidin-1-yl}piperidin-1-yl)methyl]benzonitrile] | 10 to 50 | 5.9 | 5 to 20
N#CCC1(n2cc(-c3c(C#N)cnc4[nH]ccc34)cn2)CN(C2CCN(C(=O)c3cc(C#N)ccc3C#N)CC2)C1 [Example 337, 2-[(4-{3-(cyanomethyl)-3-[4-(5-cyano-1H-pyrrolo[2,3-b]pyridin-4-yl)-1H-pyrazol-1-yl]azetidin-1-yl}piperidin-1-yl)carbonyl]terephthalonitrile] | 10 to 50 | 6.0 | 5 to 20
N#CCC1(n2cc(-c3ncnc4[nH]ccc34)cn2)CN(C2CCN(C(=O)c3csc4ccccc34)CC2)C1 [Example 96, {1-[1-(1-benzothien-3-ylcarbonyl)piperidin-4-yl]-3-[4-(7H-pyrrolo[2,3-d]pyrimidin-4-yl)-1H-pyrazol-1-yl]azetidin-3-yl}acetonitrile] | ≤ 10 | 0.5 | ≤ 5
N#CCC1(n2cc(-c3c(F)cnc4[nH]ccc34)cn2)CN(C2CCN(C(=O)c3ccncc3F)CC2)C1 [Example 320, {1-[1-(3-fluoroisonicotinoyl)piperidin-4-yl]-3-[4-(5-fluoro-1H-pyrrolo[2,3-b]pyridin-4-yl)-1H-pyrazol-1-yl]azetidin-3-yl}acetonitrile] | 10 to 50 | 2.8 | ≤ 5
Cn1cnc(S(=O)(=O)N2CCC(N3CC(CC#N)(n4cc(-c5ncnc6[nH]ccc56)cn4)C3)CC2)c1 [Example 258, {1-{1-[(1-methyl-1H-imidazol-4-yl)sulfonyl]piperidin-4-yl}-3-[4-(7H-pyrrolo[2,3-d]pyrimidin-4-yl)-1H-pyrazol-1-yl]azetidin-3-yl}acetonitrile] | ≤ 10 | 5.0 | ≤ 5
N#CCC1(n2cc(-c3ncnc4[nH]ccc34)cn2)CN(C2CCN(C(=O)c3ccc(-c4nc5ccccc5o4)cc3)CC2)C1 [Example 136, {1-{1-[4-(1,3-benzoxazol-2-yl)benzoyl]piperidin-4-yl}-3-[4-(7H-pyrrolo[2,3-d]pyrimidin-4-yl)-1H-pyrazol-1-yl]azetidin-3-yl}acetonitrile] | > 100 | 5.6 | 5 to 20
N#CCC1(n2cc(-c3ncnc4[nH]ccc34)cn2)CN(C2CCN(S(=O)(=O)c3ccc(C#N)cc3)CC2)C1 [Example 249, 4-[(4-{3-(cyanomethyl)-3-[4-(7H-pyrrolo[2,3-d]pyrimidin-4-yl)-1H-pyrazol-1-yl]azetidin-1-yl}piperidin-1-yl)sulfonyl]benzonitrile] | 10 to 50 | 2.1 | 5 to 20
COc1ncccc1NC(=O)N1CCC(N2CC(CC#N)(n3cc(-c4ccnc5[nH]ccc45)cn3)C2)CC1 [Example 306, 4-{3-(cyanomethyl)-3-[4-(1H-pyrrolo[2,3-b]pyridin-4-yl)-1H-pyrazol-1-yl]azetidin-1-yl}-N-(2-methoxypyridin-3-yl)piperidine-1-carboxamide] | 10 to 50 | 3.5 | 5 to 20
COc1ccc2nc(Cl)c(CN3CCC(N4CC(CC#N)(n5cc(-c6ncnc7[nH]ccc67)cn5)C4)CC3)cc2c1 [Example 238, {1-{1-[(2-chloro-6-methoxyquinolin-3-yl)methyl]piperidin-4-yl}-3-[4-(7H-pyrrolo[2,3-d]pyrimidin-4-yl)-1H-pyrazol-1-yl]azetidin-3-yl}acetonitrile] | 10 to 50 | 6.8 | ≤ 5
CC1CC(N2CC(CC#N)(n3cc(-c4ncnc5[nH]ccc45)cn3)C2)CCN1C(=O)C1CCC(F)(F)CC1 (stereo not drawn) [Example 151, {1-{1-[(4,4-difluorocyclohexyl)carbonyl]-2-methylpiperidin-4-yl}-3-[4-(7H-pyrrolo[2,3-d]pyrimidin-4-yl)-1H-pyrazol-1-yl]azetidin-3-yl}acetonitrile] | 50 to 100 | 5.8 | 5 to 20
N#CCC1(n2ccc(-c3ncnc4[nH]ccc34)c2)CN(C2CCN(C(=O)c3ccc(C#N)cc3F)CC2)C1 [Example 264, 4-[(4-{3-(cyanomethyl)-3-[3-(7H-pyrrolo[2,3-d]pyrimidin-4-yl)-1H-pyrrol-1-yl]azetidin-1-yl}piperidin-1-yl)carbonyl]-3-fluorobenzonitrile] | 50 to 100 | 9.5 | 5 to 20
N#CCC1(n2cc(-c3ncnc4[nH]ccc34)cn2)CN(C2CCN(C(=O)c3ccc(F)c(F)c3)CC2)C1 [Example 35, {1-[1-(3,4-difluorobenzoyl)piperidin-4-yl]-3-[4-(7H-pyrrolo[2,3-d]pyrimidin-4-yl)-1H-pyrazol-1-yl]azetidin-3-yl}acetonitrile] | 10 to 50 | 6.9 | ≤ 5
N#CCC1(n2cc(-c3ncnc4[nH]ccc34)cn2)CN(C2CCN(C(=O)Cc3c(Cl)cccc3Cl)CC2)C1 [Example 112, {1-{1-[(2,6-dichlorophenyl)acetyl]piperidin-4-yl}-3-[4-(7H-pyrrolo[2,3-d]pyrimidin-4-yl)-1H-pyrazol-1-yl]azetidin-3-yl}acetonitrile] | 50 to 100 | 8.2 | 5 to 20
